Values after ≈ are worked out from the molar mass of the structure shown.
How the values were obtained:
[1] = In vivo toxicity: single-dose maximum tolerated dose in CD1 mice; conditions: mouse, other: i.v. or i.p. (intravenous or intraperitoneal), single-dose via i.v. or i.p. routes, 1% SDS formulation
Method: Toxicity and therapeutic efficacy of polycyclic aromatic compounds can be determined by standard pharmaceutical procedures in cell cultures or experimental animals. Therapeutic efficacy is determined in animal models as described above and in the examples herein. Toxicity studies are done to determine the lethal dose for 10% of tested animals (LD10). Animals are treated at the maximum tolerated dose (MTD): the highest dose not producing mortality or greater than 20% body weight loss. The effective dose (ED) is related to the MTD in a given tumor model to determine the therapeutic index of the compound.
In vivo toxicity: With CD1 mice, the maximum tolerated dose (MTD) for a single-dose via i.v. or i.p. routes in 1% SDS formulation was ≧5 mg/kg. The acute toxicity in CD-1 nu/nlu mice of Compound 1 was also determined in 6% Tween/4.5% Glycocholate/5% EtOH formulation.

[2] = tested on: SF268 (CNS); test: In vitro tumor growth inhibition (GI50, propidium iodide); format: cell-based; conditions: Homo sapiens; SF-268; 96 hrs
[3] = tested on: Streptococcus pneumoniae PenR (LSPQ 3349); test: Antibacterial activity, MIC (NCCLS M7-A5); format: cell-based; conditions: MH medium +2% lysed horse blood
[4] = tested on: CRL nu/nu mice; test: Repeated dose toxicity in CRL nu/nu mice; format: in vivo
Method: Repeated dose toxicity was evaluated in CRL nu/nu mice (6% Tween/4.5% Glycocholate/5% EtOH formulation). The MTTD (maximum total tolerated dose) was 25 mg/kg with a qd×4 dosage regimen.

[5] = tested on: Escherichia coli (ATCC™ 25922); test: Antibacterial activity (NCCLS M7-A5); format: cell-based; conditions: MH medium
[6] = tested on: Clostridium difficile (ATCC™ 9689); test: Antibacterial activity, MIC (NCCLS M11-A5, anaerobic); format: cell-based; conditions: Clostridioides difficile; Brucella medium with hemin, vitamin K1 and 5% lysed horse blood; read-out: MIC
Method: Antibacterial activity of Compounds 1 and 2 (Table 7) was measured by determining the minimal inhibitory concentration (MIC) necessary to obtain a complete inhibition of bacteria growth in seven indicator strains, namely Staphylococcus aureus (ATCC™ 6538P), Staphylococcus aureus MRS3 (ATCC™ 700699), Enterococcus faecalis VRE-1 (ATCC™ 29212), Enterococcus faecalis VRE-2 (ATCC™ 51299), Escherichia coli (ATCC™ 25922), Streptococcus pneumoniae (LSPQ 3412) and Streptococcus pneumoniae PenR (LSPQ 3349). Indicator strains preparation and MIC determination were performed according to the National Committee for Clinical Laboratory Standards (NCCLS) guideline M7-A5 Methods for Dilution Antimicrobial Susceptibility Tests for Bacteria That Grow Aerobically; Approved Standard-Fifth Edition. (NCCLS document M7-A5, ISBN 1-56238-394-9; NCCLS, 940 West Valley Road, Suite 1400, Wayne, Pa. 19087-1898 USA), the content of which is incorporated herein by reference. MIC determination against C. difficile was performed according to National Committee for Clinical Laboratory Standards (NCCLS) guideline M11-A5 Methods for Antimicrobial Susceptibility Testing of Anaerobic Bacteria.
Compounds 1 and 2 were prepared as 100× stock solutions in DMSO, with concentrations ranging from 3.2 mg/mL to 0.003 mg/mL (a two-fold dilution series over 11 points). An aliquot of each 100× stock solution was diluted 50-fold in test medium described below to give a set of eleven (11) 2× solutions. 50 μL of each of the eleven 2× solutions was aliquoted into the corresponding well of a 12-well row, with the final well reserved for medium alone control.
Vancomycin (Sigma™), used as positive control compound, was prepared as 2× stock solutions in Mueller-Hinton test medium ranging from 64 μg/mL to 0.06 μg/ml (a two-fold dilution series over 11 points). An aliquot of 50 μL corresponding to each concentration (at 2×) was then transferred to 96-well microplates to obtain a series of eleven two-fold dilutions.
An isolated colony of each of the indicator strains was used to inoculate tubes containing 2 mL of test medium. […]

[7] = tested on: MDA-MB-231 (mammary gland adenocarcinoma); test: In vitro tumor growth inhibition (GI50, propidium iodide); format: cell-based; conditions: Homo sapiens, 96 hrs
[8] = In vivo pharmacokinetic profile (plasma levels); parameters: species or system CD-1 mice; conditions: CD-1, mouse, 25 mg/kg single dose, CD1 female mice
Method: Pharmacokinetic profile of Compound 1 was determined in CD-1 mice (FIG. 1). CD1 female mice (6 weeks of age) received a single intravenous or intraperitoneal dose of Compound 1 (25 mg/kg; 5 mL/kg) in […]/4.5% Glycocholate/5% EtOH formulation. Blood was collected into EDTA-containing tubes by cardiac puncture. Quantification of Compound 1 plasma levels was done by high performance liquid chromatographic-mass spectrometric method. Cmax values represent the maximum observed plasma concentration and AUC represents the area under the plasma concentration versus time curve (Table 6).

In the case of `CCC(C)c1cc2c(=O)c3ccc4c(OC)c5c(=O)c6c(O)ccc(O)c6c(=O)c5c(O)c4c3c(=O)c2c(=O)n1CC(=O)N1CC(C(=O)O)NC(=O)C1C` (stereo not drawn) [Compound 1], the MTD [1] was ≥ 5 mg/kg, the GI50 [2] was 3.36 µM and the MIC [3] was 4 to 16 µg/mL (≈ 5.42 to 21.7 µM). For the same compound, the “MTTD (maximum total tolerated dose)” value ([4]; qd×4 dosage regimen, 6% Tween/4.5% Glycocholate/5% EtOH formulation) was 25 mg/kg, the “Organ findings following repeated dosage” value ([4]; spleen and liver, repeated dosage) was “Adaptive hypertrophy and hyperplasia were observed in spleen and liver” and the Antibacterial activity [5] was “inactive”. The MIC [6] was 0.06 µg/mL (≈ 0.0813 µM), the GI50 [7] was 14.6 µM and the AUC ([8]; ip) was 649 µg·h/mL. For the same compound, the Cmax ([8]; ip) was 111 µg/mL, the AUC ([8]; iv) was 1180 µg·h/mL and the Cmax ([8]; iv) was 227 µg/mL.

Reference: US20060106028A1, “Polycyclic aromatics and derivatives thereof and processes for their preparation” (priority 2004, published 2006)
